How the values were obtained:
Aromatase [1] = biological target: T1, Aromatase (Homo sapiens, UniProt P11511); assay: Inhibitory concentration was tested on Cytochrome P450 19A1 in human placental microsomes 20 (microg) of protein incubated for 20 min; set-up: species or system Placenta
T1 sequence (P11511 whole entry): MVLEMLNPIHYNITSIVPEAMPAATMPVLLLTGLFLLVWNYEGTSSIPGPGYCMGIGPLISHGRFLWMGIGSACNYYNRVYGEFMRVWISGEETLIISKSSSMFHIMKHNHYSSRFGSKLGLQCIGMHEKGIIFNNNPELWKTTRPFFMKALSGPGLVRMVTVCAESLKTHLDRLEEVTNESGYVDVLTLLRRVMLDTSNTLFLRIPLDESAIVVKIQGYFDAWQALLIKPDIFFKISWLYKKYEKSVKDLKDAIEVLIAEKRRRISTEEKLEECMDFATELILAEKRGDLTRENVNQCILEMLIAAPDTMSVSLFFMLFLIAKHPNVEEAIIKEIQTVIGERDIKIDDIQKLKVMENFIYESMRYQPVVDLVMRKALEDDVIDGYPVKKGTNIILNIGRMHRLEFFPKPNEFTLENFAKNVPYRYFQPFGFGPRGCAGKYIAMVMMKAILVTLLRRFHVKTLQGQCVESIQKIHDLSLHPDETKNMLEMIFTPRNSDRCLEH

Aromatase [2] = biological target: T1, Aromatase; assay: Binding affinity for human placental microsome Cytochrome P450 19A1
Aromatase [3] = biological target: T1, Aromatase; assay: Binding affinity for human placental microsome aromatase Cytochrome P450 19A1

Row | SMILES | IC50 (Aromatase [1]) | Ki (Aromatase [2]) | Ki (Aromatase [3])
1 | CCCC[C@@H]1CC2C3CCC(=O)C3(C)CCC2C2(C)CCC(=O)C=C12 (some centres not stated) | 510 nM | 8.8 nM | –
2 | CC12CCC3C(C[C@H](c4ccccc4)C4=CC(=O)CCC43C)C1CCC2=O (some centres not stated) | 1100 nM | – | 21 nM
3 | C[C@H]1CC2C3CCC(=O)C3(C)CCC2C2(C)CCC(=O)C=C12 (some centres not stated) | 350 nM | 5.6 nM | –
4 | CC(C)[C@H]1CC2C3CCC(=O)C3(C)CCC2C2(C)CCC(=O)C=C12 (some centres not stated) | 1400 nM | – | 31 nM
5 | CC[C@@H]1CC2C3CCC(=O)C3(C)CCC2C2(C)CCC(=O)C=C12 (some centres not stated) | 140 nM | 1.4 nM | –
6 | CCC[C@H]1CC2C3CCC(=O)C3(C)CCC2C2(C)CCC(=O)C=C12 (some centres not stated) | 390 nM | – | 6.7 nM
7 | CCCC[C@H]1CC2C3CCC(=O)C3(C)CCC2C2(C)CCC(=O)C=C12 (some centres not stated) | 790 nM | – | 12 nM
8 | C#C[C@@H]1CC2C3CCC(=O)C3(C)CCC2C2(C)CCC(=O)C=C12 (some centres not stated) | 1900 nM | 62 nM | –
9 | CC(C)[C@@H]1CC2C3CCC(=O)C3(C)CCC2C2(C)CCC(=O)C=C12 (some centres not stated) | 1100 nM | – | 22 nM
10 | C=C[C@@H]1CC2C3CCC(=O)C3(C)CCC2C2(C)CCC(=O)C=C12 (some centres not stated) | 320 nM | – | 5.1 nM
11 | CCC[C@@H]1CC2C3CCC(=O)C3(C)CCC2C2(C)CCC(=O)C=C12 (some centres not stated) | 240 nM | 4.6 nM | –
12 | CC12CCC3C(C[C@@H](Cc4ccccc4)C4=CC(=O)CCC43C)C1CCC2=O (some centres not stated) | 4000 nM | – | 63 nM
13 | CC12CCC3C(C[C@H](Cc4ccccc4)C4=CC(=O)CCC43C)C1CCC2=O (some centres not stated) | 660 nM | – | 10 nM
14 | CC12CCC3C(C[C@@H](c4ccccc4)C4=CC(=O)CCC43C)C1CCC2=O (some centres not stated) | 1700 nM | 37 nM | –
15 | CC[C@H]1CC2C3CCC(=O)C3(C)CCC2C2(C)CCC(=O)C=C12 (some centres not stated) | 260 nM | 4.7 nM | –
16 | C[C@@H]1CC2C3CCC(=O)C3(C)CCC2C2(C)CCC(=O)C=C12 (some centres not stated) | 720 nM | 11 nM | –

Reference: ChEMBL document CHEMBL1127822, “6-Alkyl- and 6-arylandrost-4-ene-3,17-diones as aromatase inhibitors. Synthesis and structure-activity relationships” (J Med Chem, 1994)
